This is an account of results in ChEMBL document CHEMBL6153124, “Structural Chemistry of Helicase Inhibition” (J Med Chem, 2025).

Experiment [1] deals with T1, Bifunctional 3'-5' exonuclease/ATP-dependent helicase WRN (Homo sapiens, UniProt Q14191). The experiment in a line: Inhibition of N-terminal WRN (unknown origin).
In experiment [2] the target is T1, Bifunctional 3'-5' exonuclease/ATP-dependent helicase WRN. Nature of the experiment: Inhibition of N-terminal Hexa-histidine-tagged human recombinant WRN helicase domain (517 to 945 residues) extracted from Baculovirus infected Sf9 cells by fluorescence based analysis.
A short description of experiment [3]: Inhibition of HSV-1 helicase DNA dependent ATPase activity assessed as reduction in helicase-primase complex. Set-up: species or system Human alphaherpesvirus 1.
Experiment [4] can be described thus: Inhibition of Coxsackievirus B3 2C protein.
The nature of experiment [5]: Binding affinity to Coxsackievirus B3 2C protein assessed as dissociation constant.
Experiment [6] has as its target Eukaryotic initiation factor 4A-I (Homo sapiens, UniProt P60842). The experiment in a line: Inhibition of recombinant full length 6xHis-tagged EIF4A1 (unknown origin) by FP assay.
Experiment [7] addresses SWI/SNF-related matrix-associated actin-dependent regulator of chromatin subfamily A member 2 (Homo sapiens, UniProt P51531). The experiment in a line: Inhibition of SMARCA2 (unknown origin).

T1 sequence (Q14191 whole entry, the tested form may be a part): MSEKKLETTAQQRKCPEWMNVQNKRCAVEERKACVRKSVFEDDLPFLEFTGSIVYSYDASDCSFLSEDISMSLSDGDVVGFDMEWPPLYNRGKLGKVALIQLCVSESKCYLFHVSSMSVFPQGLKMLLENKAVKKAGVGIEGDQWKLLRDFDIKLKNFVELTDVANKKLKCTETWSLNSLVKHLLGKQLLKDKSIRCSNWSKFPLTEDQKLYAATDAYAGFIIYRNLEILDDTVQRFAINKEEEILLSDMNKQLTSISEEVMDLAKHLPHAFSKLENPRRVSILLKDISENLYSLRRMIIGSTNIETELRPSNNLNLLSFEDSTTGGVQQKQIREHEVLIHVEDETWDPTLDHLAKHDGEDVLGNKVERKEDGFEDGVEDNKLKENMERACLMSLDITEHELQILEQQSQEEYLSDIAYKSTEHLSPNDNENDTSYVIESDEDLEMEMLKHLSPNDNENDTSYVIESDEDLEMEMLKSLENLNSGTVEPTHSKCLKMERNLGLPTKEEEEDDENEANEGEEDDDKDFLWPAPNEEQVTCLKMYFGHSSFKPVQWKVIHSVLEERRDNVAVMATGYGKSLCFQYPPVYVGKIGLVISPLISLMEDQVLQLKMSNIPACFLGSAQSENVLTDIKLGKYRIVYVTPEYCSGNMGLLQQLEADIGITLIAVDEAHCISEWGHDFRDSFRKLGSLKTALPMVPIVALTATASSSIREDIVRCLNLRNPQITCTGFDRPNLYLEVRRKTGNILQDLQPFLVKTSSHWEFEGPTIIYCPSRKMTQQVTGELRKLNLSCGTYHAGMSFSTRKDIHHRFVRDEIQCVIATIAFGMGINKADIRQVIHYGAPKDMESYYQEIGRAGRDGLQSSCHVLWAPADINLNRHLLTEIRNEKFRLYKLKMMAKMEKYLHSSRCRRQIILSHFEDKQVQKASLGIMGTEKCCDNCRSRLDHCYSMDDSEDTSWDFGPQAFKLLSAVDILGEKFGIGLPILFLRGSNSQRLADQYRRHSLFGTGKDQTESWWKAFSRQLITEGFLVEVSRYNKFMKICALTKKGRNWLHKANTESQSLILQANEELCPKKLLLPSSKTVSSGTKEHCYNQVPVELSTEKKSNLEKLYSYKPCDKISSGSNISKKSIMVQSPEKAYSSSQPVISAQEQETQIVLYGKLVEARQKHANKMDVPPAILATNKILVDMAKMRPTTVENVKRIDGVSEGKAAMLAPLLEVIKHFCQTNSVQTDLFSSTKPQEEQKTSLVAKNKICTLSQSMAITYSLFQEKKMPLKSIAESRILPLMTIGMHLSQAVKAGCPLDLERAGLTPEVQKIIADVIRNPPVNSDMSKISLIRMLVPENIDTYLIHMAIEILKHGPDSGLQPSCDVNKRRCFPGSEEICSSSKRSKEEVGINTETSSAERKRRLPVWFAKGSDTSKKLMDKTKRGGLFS
Chain of Eukaryotic initiation factor 4A-I (P60842 whole entry): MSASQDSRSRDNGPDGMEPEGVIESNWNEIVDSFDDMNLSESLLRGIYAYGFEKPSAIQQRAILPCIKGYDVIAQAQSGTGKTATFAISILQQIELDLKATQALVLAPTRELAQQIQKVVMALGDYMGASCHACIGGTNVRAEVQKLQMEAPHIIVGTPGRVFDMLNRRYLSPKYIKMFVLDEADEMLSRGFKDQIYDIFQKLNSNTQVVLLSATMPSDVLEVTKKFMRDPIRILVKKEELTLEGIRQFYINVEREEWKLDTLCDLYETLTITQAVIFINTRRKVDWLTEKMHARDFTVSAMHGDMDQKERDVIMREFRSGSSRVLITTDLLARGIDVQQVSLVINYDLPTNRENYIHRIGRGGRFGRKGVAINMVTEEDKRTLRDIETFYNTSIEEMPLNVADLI
Chain of SWI/SNF-related matrix-associated actin-dependent regulator of chromatin subfamily A member 2 (P51531 whole entry): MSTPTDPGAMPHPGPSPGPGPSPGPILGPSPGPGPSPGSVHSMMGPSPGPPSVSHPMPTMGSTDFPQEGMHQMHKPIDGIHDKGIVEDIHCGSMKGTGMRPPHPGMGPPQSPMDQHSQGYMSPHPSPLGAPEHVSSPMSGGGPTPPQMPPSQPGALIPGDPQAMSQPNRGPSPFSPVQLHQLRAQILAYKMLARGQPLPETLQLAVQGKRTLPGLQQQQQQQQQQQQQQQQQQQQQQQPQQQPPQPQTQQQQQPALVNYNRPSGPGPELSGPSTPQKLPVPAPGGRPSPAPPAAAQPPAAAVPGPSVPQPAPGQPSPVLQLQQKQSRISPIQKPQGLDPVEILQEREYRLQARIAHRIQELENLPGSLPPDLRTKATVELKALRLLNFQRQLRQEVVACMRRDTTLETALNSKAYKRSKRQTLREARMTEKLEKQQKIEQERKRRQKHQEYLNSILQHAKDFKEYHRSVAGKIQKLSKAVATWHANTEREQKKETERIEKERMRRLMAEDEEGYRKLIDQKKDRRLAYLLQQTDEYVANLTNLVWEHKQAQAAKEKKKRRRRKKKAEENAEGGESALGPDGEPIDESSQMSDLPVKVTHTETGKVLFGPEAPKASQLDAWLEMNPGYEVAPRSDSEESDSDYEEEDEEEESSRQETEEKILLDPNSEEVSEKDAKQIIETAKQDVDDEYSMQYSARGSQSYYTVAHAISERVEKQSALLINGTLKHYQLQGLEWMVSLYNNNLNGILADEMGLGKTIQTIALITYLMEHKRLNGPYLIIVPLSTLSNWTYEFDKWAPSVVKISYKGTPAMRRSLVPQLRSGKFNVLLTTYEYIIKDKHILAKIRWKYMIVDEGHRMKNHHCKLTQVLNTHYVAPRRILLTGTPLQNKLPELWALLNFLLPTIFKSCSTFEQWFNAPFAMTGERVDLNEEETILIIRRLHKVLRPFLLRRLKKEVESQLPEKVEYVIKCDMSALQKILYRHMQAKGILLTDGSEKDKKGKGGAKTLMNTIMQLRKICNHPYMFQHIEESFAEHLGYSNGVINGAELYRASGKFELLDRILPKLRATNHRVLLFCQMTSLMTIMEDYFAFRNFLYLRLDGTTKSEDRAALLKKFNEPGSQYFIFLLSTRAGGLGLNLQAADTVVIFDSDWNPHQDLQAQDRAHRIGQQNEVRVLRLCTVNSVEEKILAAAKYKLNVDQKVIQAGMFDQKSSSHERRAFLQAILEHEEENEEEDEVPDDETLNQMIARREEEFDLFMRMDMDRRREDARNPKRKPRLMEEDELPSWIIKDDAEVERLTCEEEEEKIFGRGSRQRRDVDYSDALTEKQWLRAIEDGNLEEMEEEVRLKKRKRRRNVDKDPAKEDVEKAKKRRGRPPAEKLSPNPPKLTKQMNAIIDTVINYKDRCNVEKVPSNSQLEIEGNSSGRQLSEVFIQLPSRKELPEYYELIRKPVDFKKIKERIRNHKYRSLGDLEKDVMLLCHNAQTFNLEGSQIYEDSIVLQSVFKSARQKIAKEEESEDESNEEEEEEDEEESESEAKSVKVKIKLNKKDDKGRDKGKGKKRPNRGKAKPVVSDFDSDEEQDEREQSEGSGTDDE

Broadly, the IC50 is the concentration at which inhibition is half-maximal. With `CS(=O)(=O)CC[C@@H](NC(=O)c1cnc(C(F)(F)F)nc1Oc1ccccc1)C1CC1`, the IC50 in experiment [1] and in experiment [2] was 140 nM throughout.

For `Cc1cccc(C)c1N(CC(=O)Nc1ccc(-c2ncon2)cc1)C(=O)C1CCS(=O)(=O)CC1`, the IC50 in experiment [3] stood at 78 nM. The term EC50 denotes the concentration needed to bring the measured effect to its halfway point. Read a low EC50 as greater potency. By Kd is commonly meant the equilibrium constant for the complex coming apart. In experiment [4], `CNCCC(Oc1ccc(C(F)(F)F)cc1)c1ccccc1` (centres undefined) [FLUOXETINE] yielded an EC50 of around 5000 nM. In addition, the Kd in experiment [5] is 9500 nM. As for `CC(/C=C/C(C)=C/[C@@H]1Cc2nc(cs2)CC[C@@H](N)CC(=O)O[C@@H](C)C/C(C)=C/C=C\C(=O)O1)=C\CN(C)C`, the IC50 in experiment [6] was determined as 1 nM.

Regarding `O=C(Nc1cc(C(F)F)ns1)Nc1cc(F)ncc1CO`, the IC50 in experiment [7] is below 5 nM. As for `COC(=O)[C@H]1[C@@H](O)[C@@]2(O)c3c(OC)cc(O[C@@H]4O[C@@H]([C@H](O)CO)CO[C@H]4OC)cc3O[C@@]2(c2ccc(OC)cc2)[C@@H]1c1ccccc1` [SILVESTROL], the IC50 in experiment [6] was 60 nM. `CNCC[C@H](Oc1ccc(C(F)(F)F)cc1)c1ccccc1`: the EC50 in experiment [4] amounted to 5000 nM.
